According to patent publication US20120065198A2, “Detection and Treatment of Schizophrenia” (Tokai University Educational System, priority 2007, published 2012):

Test system: pentosidine formation
Assay: Inhibitory activity on pentosidine formation, samples incubated with BSA and arabinose
Format: biochemical
Details: 5 mM drug; incubated with BSA and arabinose instead of patient plasma
Method: Plasma was collected from hemodialysis patients prior to dialysis with the patients' consent, and the plasma was filtered and sterilized. To the plasma (450 μL) was added solutions of TM-2002 in dimethylsulfoxide (50 μL) (final concentrations: 0.8, 2.0, and 5.0 mM), and the mixtures were incubated for 1 week at 37° C. The levels of the pentosidine formation were measured.
Pentosidine was measured as follows. To each sample (50 μL) after incubation was added an equal volume of 10% trichloroacetic acid, and the mixture was subsequently centrifuged at 5,000 g for 5 minutes. After the supernatant was removed, the pellet was washed with 5% trichloroacetic acid (300 μL). The pellet was dried under reduced pressure, and subsequently hydrolyzed in a 6N HCl solution (100 μL) under a nitrogen atmosphere for 16 hours at 110° C. To the acid hydrolysate was then added 5N NaOH (100 μL) and 0.5 M phosphate buffer (pH 7.4) (200 μL); the mixture was subsequently filtered through a micropore filter with 0.5 μm pores and diluted with PBS. The concentration of the released pentosidine was measured by reverse-phase HPLC using a fluorescence detector (RF-10A, Shimadzu Corporation) (Miyata, T. et al.; Proc. Natl. Acad. Sci. USA, Vol. 93, p. 2353-2358, 1996). The effluent was monitored at the excitation/emission wavelength of 335/385 nm. Synthetic pentosidine was used as the reference material. The detection limit of pentosidine was 0.1 pmol/mg protein.
(2) Other edaravone analogues (Compounds (1) or (2)) were investigated for their inhibitory activities on pentosidine formation in the same manner as in Section (1) above, except that the samples were incubated with BSA and arabinose instead of the patient plasma. In the tables, “-” means that the test was not conducted.

SMILES	Pentosidine Formation Ratio (%) at 5 mM Drug Concentration [%]
COC(=O)c1ccc(N2N=C(C)/C(=C/c3ccc(-c4ccc(S(N)(=O)=O)cc4)o3)C2=O)cc1 [compound 41, 4-{3-methyl-5-oxo-4-[5-(4-sulfamoyl-phenyl)-furan-2-ylmethylene]-4,5-dihydro-pyrazol-1-yl}-benzoic acid methyl ester]	37.81
CC1=NN(c2ccccc2)C(=O)C12Sc1ccccc1C2=O (centres unmarked) [compound 28]	22.83
O=C(NC1=NN(c2ccccc2)C(=O)C1Sc1nnnn1-c1ccccc1)c1ccccc1 (centres unmarked) [compound 14, N-[5-oxo-1-phenyl-4-(1-phenyl-1H-tetrazol-5-ylsulfanyl)-4,5-dihydro-1H-pyrazol-3-yl]-benzamide]	61.27
COc1ccc(/C=C2/C(=O)N(c3ccccc3)N=C2C)c(OC)c1O [compound 59, 4-(3-hydroxy-2,4-dimethoxy-benzylidene)-5-methyl-2-phenyl-2,4-dihydro-pyrazol-3-one]	5.3
CC1=NN(c2ccc(C)c(C)c2)C(=O)/C1=C\c1ccc(O)cc1O [compound 54, 4-(2,4-dihydroxy-benzylidene)-2-(3,4-dimethyl-phenyl)-5-methyl-2,4-dihydro-pyrazol-3-one]	73.48
O=C(NC1=NN(c2ccccc2)C(=O)C1(O)S(=O)(=O)[O-])c1ccccc1.[Na+] (centres unmarked) [compound 27, Sodium 3-benzoylamino-4-hydroxy-5-oxo-1-phenyl-4,5-dihydro-1H-pyrazole-4-sulfonate]	2.83
CC1=NN(c2ccccc2)C(=O)C1CCC(=O)O (centres unmarked) [compound 7]	64.64
COC(=O)c1cccc(-c2ccc(/C=C3\C(=O)N(c4ccc(S(C)(=O)=O)cc4)N=C3C)o2)c1 [compound 39]	16.87
COc1cc(/C=C2/C(=O)N(c3ccc(Cl)c(C(=O)O)c3)N=C2C)c(Cl)cc1O [compound 61, 2-chloro-5-[4-(2-chloro-4-hydroxy-5-methoxy-benzylidene)-3-methyl-5-oxo-4,5-dihydro-pyrazol-1-yl]-benzoic acid]	46.52
CC1=NN(c2cccc(F)c2)C(=O)/C1=C\c1ccc(N(C)C)cc1 [compound 35, 4-(4-dimethylamino-benzylidene)-2-(3-fluoro-phenyl)-5-methyl-2,4-dihydro-pyrazol-3-one]	76.31
CC1=NN(c2ccccc2)C(=O)C1C1C(=O)N(c2ccccc2)N=C1C (centres unmarked) [compound 17, 5,5′-dimethyl-2,2′-diphenyl-2,4,2′,4′-tetrahydro [4,4′]bipyrazole-3,3′-dione]	60.96
CC1=NN(c2ccc(Cl)cc2)C(=O)/C1=C/c1cccc(O)c1 [compound 43, 2-(4-chloro-phenyl)-4-(3-hydroxy-benzylidene)-5-methyl-2,4-dihydropyrazol-3-one]	3.00
CCCC1=NN(c2ccccc2)C(=O)C1CC(=O)c1ccccc1 (centres unmarked) [compound 20]	83.12

Same assay, conditions: Table 13; incubated with BSA and arabinose instead of patient plasma

SMILES	Pentosidine Formation Ratio (%) at 5 Concentration [%]
CCOC(=O)C1=NN(c2ccccc2)/C(=C2\C(=O)N(c3ccccc3)N=C2c2ccccc2)S1 [compound 74]	87.24
CC1=NN(c2ccccc2)C(=O)/C1=C/c1ccc(OCc2ccccc2)cc1 [compound 72, 4-(4-benzyloxy-benzylidene)-5-methyl-2-phenyl-2,4-dihydropyrazol-3-one]	7.63
Cc1ncc2c(c1O)C(c1c(C)nn(-c3ccccc3)c1O)OC2.Cl (centres unmarked) [compound 69, 1-(5-hydroxy-3-methyl-1-phenyl-1H-pyrazol-4-yl)-6-methyl-1,3-dihydro-furo [3,4-c]pyridin-7-ol]	2.94
CC1=NN(c2ccccc2)C(=O)/C1=C/c1ccc(O)cc1 [compound 70, 4-(4-hydroxy-benzylidene)-5-methyl-2-phenyl-2,4-dihydro-pyrazol-3-one]	0.04
